# Where two headings read alike, the source gives them in different places. *1 amine or outer side, *2 acyl side, *3 side chain or, on linkers, in order; H or OH if unused. Where a SMILES comes first, the peptide text is derived from it. Bridges are numbered along the chain shown (N, C = ends). Roman numbers before positions name the chains, in order. [ ]: non-standard residue; d: D form. Actinocin(9to1) = Cc1c2oc3c(C)ccc(C(=O)[*:1])c3nc-2c(C(=O)[*:2])c(N)c1=O; NMeV = CN[C@H](C(=O)O)C(C)C; Sar = CNCC(=O)O
# What was measured:
# [1] = system: Chinese hamster ovary (CHO) tissue culture cells (AuxB1 and C5S32); assay: Cytotoxicity of Actinomycin D alone in Chinese hamster ovary cells (AuxB1 and C5S32); format: cell-based
# in vitro [2] = format: cell-based, Chinese hamster; settings: hamster, auxb1 cho cells
# [3] = system: AuxB1 Chinese hamster ovary cells (wildtype); assay: in vitro; format: cell-based; settings: auxb1 cho cells, 96 h
# [4] = In vitro cytotoxicity of potentiating agents in Chinese hamster ovary cells, multidrug resistant C5S32 line, MTT; format: cell-based; settings: hamster, c5s32 cho cells, C5S32 drug resistant, no Act D, untreated = 1.00, read-out: Normalized absorbance (cell survival), potentiating agent alone, fraction of untreated culture
# [5] = system: C5S32 Chinese hamster ovary cells (drug resistant); assay: as above; format: cell-based; settings: 96 h, Act D alone = 1.00
# [6] = system: KB 3-1 human epidermoid carcinoma cells (wildtype); settings: kb 3-1 cells, 96 h
# Procedure: (§1) The procedure for assaying the cytotoxicity of potentiating agents with human KB epidermoid carcinoma cells is essentially the same as the assay procedure described above for use with Chinese hamster ovary cells. […] After 48 hours of incubation at 37° C., the media is changed and cells are treated with actinomycin D at 0.1 nM (3-1) or 20 nM (V-i). The test potentiating agent is introduced to one-half the untreated cultures and onehalf the Act D treated cultures at 1 and 10 μM. After 96 hours of additional incubation at 37° C, 0.5 mg/ml MTT dye is added, the cells are incubated for three hours, after which the cells are dissolved in DMSO, and the absorbance is then read at 570 nm.
# in vitro [7] = settings: human, kb 3-1 cells
# Procedure: as §1
# [8] = In vitro cytotoxicity of potentiating agents in human KB epidermoid carcinoma cells, drug resistant KB V-1, MTT; settings: human, kb v-1 cells
# Procedure: as §1
# [9] = system: KB V-1 human epidermoid carcinoma cells (drug resistant); assay: as above; settings: KB V-1 drug resistant, 96 h, Act D alone = 1.00
# Procedure: as §1
# [10] = system: resistant sublines of murine leukemia cells; settings: Tsuruo et al., Cancer Res.; cited from earlier work
smiles,measurement,setting,value
"Cc1c2oc3c(C)ccc(C(=O)N[C@@H]4C(=O)N[C@H](C(C)C)C(=O)N5CCC[C@H]5C(=O)N(C)CC(=O)N(C)[C@@H](C(C)C)C(=O)O[C@@H]4C)c3nc-2c(C(=O)N[C@@H]2C(=O)N[C@H](C(C)C)C(=O)N3CCC[C@H]3C(=O)N(C)CC(=O)N(C)[C@@H](C(C)C)C(=O)O[C@@H]2C)c(N)c1=O [Actinomycin D] (I: T[dV]P[Sar][NMeV] / II: T[dV]P[Sar][NMeV]; ester I:1-I:C, II:1-II:C; linker I:N-II:N via Actinocin(9to1))",reduction in cell number below the value of completely untreated cultures,"[1]; Act D alone (0.01 μM AuxB1, 0.5 μM C5S32), in most experiments",10-20%
same,resistance of C5S32 cells to Actinomycin D compared to the parental AuxB1 cell line,[1]; C5S32 vs AuxB1,about 200 fold
"CCOC(=O)/C=C/c1cccc(/C(=C/CN2CCCC2)c2ccc(C)cc2)n1 [Compound (B), Ethyl (E)-3-{6-[3-pyrrolidino-l-(4-tolyl)prop-lE-enyl]-2-pyridyl}acrylate]","viability at 96 h, 1 µM",in vitro [2],92%
same,"viability at 96 h, 10 µM",in vitro [2],93%
same,"Normalized absorbance (cell survival), potentiating agent + Act D, fraction of Act D alone",[3]; 1 µM,0.63
same,"Normalized absorbance (cell survival), potentiating agent + Act D, fraction of Act D alone",[3]; 10 µM,0.29
same,"viability at 96 h, 1 µM",[4]; potentiating agent 1 μM,77%
same,"viability at 96 h, 10 µM",[4]; potentiating agent 10 μM,52%
same,"Normalized absorbance (cell survival), potentiating agent + Act D, fraction of Act D alone",[5]; potentiating agent 1 μM + Act D 0.5 μM,0.63
same,"Normalized absorbance (cell survival), potentiating agent + Act D, fraction of Act D alone",[5]; potentiating agent 10 μM + Act D 0.5 μM,0.14
same,"Normalized absorbance (cell survival), potentiating agent + Act D, fraction of Act D alone",[6]; 1 µM,0.55
same,"Normalized absorbance (cell survival), potentiating agent + Act D, fraction of Act D alone",[6]; 10 µM,0.45
same,"viability at 96 h, 1 µM",in vitro [7],58%
same,"viability at 96 h, 10 µM",in vitro [7],37%
same,"viability at 96 h, 1 µM",[8],36%
same,"viability at 96 h, 10 µM",[8],14%
same,"Normalized absorbance (cell survival), potentiating agent + Act D, fraction of Act D alone",[9]; potentiating agent 1 μM + actinomycin D 20 nM,0.48
same,"Normalized absorbance (cell survival), potentiating agent + Act D, fraction of Act D alone",[9]; potentiating agent 10 μM + actinomycin D 20 nM,0.04
COc1ccc(CCN(C)CCCC(C#N)(c2ccc(OC)c(OC)c2)C(C)C)cc1OC (stereo not shown) [Verapamil],enhancement of the activity of antitumor agents against resistant sublines of murine leukemia cells,[10],enhance the activity of antitumor agents
CCN(CC)CCn1c(=O)c(Cc2ccc(OC)cc2)nc2ccccc21 [caroverine],enhancement of the activity of antitumor agents against resistant sublines of murine leukemia cells,[10],enhance the activity of antitumor agents
CN(C)CCCN1c2ccccc2CCc2ccc(Cl)cc21 [clomipramine],enhancement of the activity of antitumor agents against resistant sublines of murine leukemia cells,[10],enhance the activity of antitumor agents
COc1ccc([C@@H]2Sc3ccccc3N(CCN(C)C)C(=O)[C@@H]2OC(C)=O)cc1 [diltiazem],enhancement of the activity of antitumor agents against resistant sublines of murine leukemia cells,[10],enhance the activity of antitumor agents
COC(=O)C1=C(C)NC(C)=C(C(=O)OCCN(C)Cc2ccccc2)C1c1cccc([N+](=O)[O-])c1 (stereo not shown) [nicardipine],enhancement of the activity of antitumor agents against resistant sublines of murine leukemia cells,[10],enhance the activity of antitumor agents
C=C[C@H]1C[N@@]2CC[C@H]1C[C@@H]2[C@@H](O)c1ccnc2ccc(OC)cc12 [quinidine],enhancement of the activity of antitumor agents against resistant sublines of murine leukemia cells,[10],enhance the activity of antitumor agents
CN1CCN(CCCN2c3ccccc3Sc3ccc(C(F)(F)F)cc32)CC1 [trifluoperazine],enhancement of the activity of antitumor agents against resistant sublines of murine leukemia cells,[10],enhance the activity of antitumor agents
